Drawing on US20240343727A1, “PYRIDAZINONE OR PYRIDINONE COMPOUNDS, PREPARATION METHODS AND USES THEREOF” (InventisBio Co., Ltd., priority 2021, published 2024), this text covers IC50 for 36 compounds.

The target of this assay is T1, PARP7 (Homo sapiens, UniProt Q7Z3E1).
T1 sequence (Q7Z3E1 1-657): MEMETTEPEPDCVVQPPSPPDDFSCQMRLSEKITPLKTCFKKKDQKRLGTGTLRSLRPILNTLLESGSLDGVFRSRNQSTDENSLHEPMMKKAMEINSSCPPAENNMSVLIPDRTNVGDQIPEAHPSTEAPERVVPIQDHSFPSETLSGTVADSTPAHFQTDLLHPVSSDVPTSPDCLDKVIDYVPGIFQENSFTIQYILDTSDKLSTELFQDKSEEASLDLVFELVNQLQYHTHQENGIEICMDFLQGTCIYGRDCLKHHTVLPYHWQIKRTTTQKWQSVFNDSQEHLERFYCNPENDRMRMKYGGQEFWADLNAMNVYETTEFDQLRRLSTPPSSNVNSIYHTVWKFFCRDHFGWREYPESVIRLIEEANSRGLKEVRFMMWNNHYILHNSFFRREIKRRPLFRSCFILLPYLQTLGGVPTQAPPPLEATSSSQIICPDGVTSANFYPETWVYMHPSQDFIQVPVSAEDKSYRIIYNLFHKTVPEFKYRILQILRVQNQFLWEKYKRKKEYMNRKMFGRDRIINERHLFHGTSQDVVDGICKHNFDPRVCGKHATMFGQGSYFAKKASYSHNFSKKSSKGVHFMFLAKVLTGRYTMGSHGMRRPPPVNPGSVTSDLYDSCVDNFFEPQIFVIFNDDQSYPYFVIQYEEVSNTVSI
Nature of the assay: PARP7 TR-FRET assay (binding, displacement of biotinylated Probe A). The following applies: 6 nM PARP7, 2 nM Probe A, 25° C., 30 min. The procedure, abridged:
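His-tagged PARP7 at 6 nM was preincubated with compound and 2 nM biotinylated Probe A for 30 min at 25° C (HEPES pH 8.0, NaCl, BSA, DTT, Tween20). Europium-streptavidin/ULight-anti-His FRET was read as the 665/615 nm ratio after a further 30 min. IC50 was fitted from % inhibition normalised to vehicle and blank.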
Background: TR-FRET usually uses a lanthanide donor and a delayed reading to cut background.
For `O=C(CC1CN(c2cc(C(F)(F)F)c(=O)[nH]n2)c2cc(F)ccc2O1)N1CCN(c2cnc(C(F)(F)F)cn2)CC1` (single isomer, unassigned) [Compound 292], the IC50 was 0.1 to 1 µM.
For `O=C(c1cncc(Oc2n[nH]c(=O)c(C(F)(F)F)c2N2CC3(C2)CC(F)(F)C3)c1)N1CCN(c2ncc(C3CC3)cn2)CC1` [Compound 313], the 50% inhibitory concentration (IC50) is < 0.1 µM.
Next, `N#Cc1ccc(N2CCN(C(=O)c3cc(Oc4n[nH]c(=O)c(C(F)(F)F)c4N4CC5(C4)CC(F)(F)C5)ccn3)CC2)nc1` [Compound 306]: < 0.1 µM; `CNC1CN(c2c(Oc3cccc(C(=O)N4CCN(c5ncc(C(F)(F)F)cn5)CC4)c3)n[nH]c(=O)c2C(F)(F)F)C1` [Compound 61]: < 0.1 µM.
As to `O=C(CC1CN(c2cc(C(F)(F)F)c(=O)[nH]n2)c2cc(C(F)F)ccc2O1)N1CCN(c2cnc(C(F)(F)F)cn2)CC1` (single isomer, unassigned) [Compound 146], the 50% inhibitory concentration (IC50) is 0.1 to 1 µM.
Next, `O=C(CC1CN(c2n[nH]c(=O)c3ccc(F)cc23)CCO1)N1CCN(c2ncc(C(F)(F)F)cn2)CC1` (single isomer, unassigned) [Compound 52]: < 0.1 µM.
Take `COCC1CN(c2c(Oc3cccc(C(=O)N4CCN(c5ncc(C(F)(F)F)cn5)CC4)c3)n[nH]c(=O)c2C(F)(F)F)C1` [Compound 186]: the IC50 is < 0.1 µM.
Next, `C[C@H]1CN(c2cc(C(F)(F)F)c(=O)[nH]n2)C[C@H](CC(=O)N2CCN(c3ncc(C(F)(F)F)cn3)CC2)O1` (stereo in doubt) [Compound 111]: < 0.1 µM; `O=C(CC1CN(c2cc(C(F)(F)F)c(=O)[nH]n2)c2ccccc2O1)N1CCN(c2cnc(C(F)(F)F)cn2)CC1` (single isomer, unassigned) [Compound 262]: < 0.1 µM.
Next, `O=C(c1cccc(Oc2n[nH]c(=O)c(C(F)(F)F)c2N2CC3(CCO3)C2)c1)N1CC2CCC(C1)N2c1ncc(C(F)(F)F)cn1` [Compound 257]: < 0.1 µM; `O=C(CC1CN(c2cc(C(F)(F)F)c(=O)[nH]n2)c2ccccc2O1)N1CCN(c2ccc(C3CC3)cn2)CC1` (single isomer, unassigned) [Compound 285]: < 0.1 µM; `O=C(C[C@@H]1CN(c2n[nH]c(=O)c3ccc(N4CC(F)C4)cc23)CCO1)N1CCN(c2ncc(C(F)(F)F)cn2)CC1` [Compound 207]: < 0.1 µM.
Next, `O=C(CC1CN(c2n[nH]c(=O)c3ccc(OCC(F)F)cc23)CCO1)N1CCN(c2ncc(C(F)(F)F)cn2)CC1` (single isomer, unassigned) [Compound 210]: < 0.1 µM.
Regarding `N#Cc1ccc(N2CCN(C(=O)CC3CN(c4cc(C(F)(F)F)c(=O)[nH]n4)c4cc(C#N)ccc4O3)CC2)nc1` (single isomer, unassigned) [Compound 215], the half-inhibitory concentration (IC50) is < 0.1 µM.
With `C[C@@H]1CN(c2n[nH]c(=O)c3cccc(F)c23)C[C@H](CC(=O)N2CCN(c3ncc(C(F)(F)F)cn3)CC2)O1` (stereo in doubt) [Compound 119], the IC50 was > 1 µM.
Next, `Cc1c(N2CCC[C@H]2CCC(=O)N2CCN(c3ncc(C(F)(F)F)cn3)CC2)n[nH]c(=O)c1C(F)(F)F` [Compound 127]: < 0.1 µM; `N#Cc1cnc(N2CCN(C(=O)CC3CN(c4cc(C(F)(F)F)c(=O)[nH]n4)c4cc(Cl)ccc4O3)CC2)nc1` (single isomer, unassigned) [Compound 294]: 0.1 to 1 µM; `N#CC1CN(c2c(Oc3cccc(C(=O)N4CCN(c5ncc(C(F)(F)F)cn5)CC4)c3)n[nH]c(=O)c2C(F)(F)F)C1` [Compound 60]: < 0.1 µM.
Regarding `O=C(CC1CN(c2cc(C(F)(F)F)c(=O)[nH]n2)c2ccc(F)cc2O1)N1CCN(c2ncc(C(F)(F)F)cn2)CC1` (single isomer, unassigned) [Compound 157], the half-inhibitory concentration (IC50) was < 0.1 µM.
Next, `O=C(CC1CN(c2n[nH]c(=O)c3c(Cl)cccc23)CCO1)N1CCN(c2ncc(C(F)(F)F)cn2)CC1` (single isomer, unassigned) [Compound 98]: < 0.1 µM; `N#Cc1cnc(N2CCN(C(=O)CC3CN(c4cc(C(F)(F)F)c(=O)[nH]n4)c4cc(F)ccc4O3)CC2)nc1` (single isomer, unassigned) [Compound 265]: 0.1 to 1 µM; `O=C(CC1CN(c2n[nH]c(=O)c3ncccc23)CCO1)N1CCN(c2ncc(C(F)(F)F)cn2)CC1` (single isomer, unassigned) [Compound 126]: > 1 µM.
Next, `O=C(C[C@@H]1CCCN1c1n[nH]c(=O)c2ccccc12)N1CCN(c2ncc(C(F)(F)F)cn2)CC1` [Compound 47]: > 1 µM; `C[C@H]1CN(c2n[nH]c(=O)c3c(F)cccc23)C[C@H](CC(=O)N2CCN(c3ncc(C(F)(F)F)cn3)CC2)O1` (stereo in doubt) [Compound 91]: 0.1 to 1 µM; `C[C@@H]1CN(C(=O)c2cccc(Oc3n[nH]c(=O)c(C(F)(F)F)c3N3CC4(C3)CC(F)(F)C4)c2)CCN1c1ncc(C#N)cn1` [Compound 341]: < 0.1 µM.
Next, `N#Cc1ccc2c(c1)N(c1cc(C(F)(F)F)c(=O)[nH]n1)CC(CC(=O)N1CCN(c3ncc(C(F)(F)F)cn3)CC1)O2` (single isomer, unassigned) [Compound 201]: 0.1 to 1 µM.
Regarding `O=C(CO[C@H]1C[C@H](CC2CC2)Oc2c1n[nH]c(=O)c2C(F)(F)F)N1CCN(c2ncc(C(F)(F)F)cn2)CC1` (stereo in doubt) [Compound 184], the 50% inhibitory concentration (IC50) was > 1 µM.
Next, `N#Cc1ccc(N2CCN(C(=O)CC3CN(c4cc(C(F)(F)F)c(=O)[nH]n4)c4cc(F)ccc4O3)CC2)nc1` (single isomer, unassigned) [Compound 269]: 0.1 to 1 µM.
The compound `CNCc1ccc2c(c1)N(c1cc(C(F)(F)F)c(=O)[nH]n1)CC(CC(=O)N1CCN(c3ncc(C(F)(F)F)cn3)CC1)O2` (single isomer, unassigned) [Compound 297] displayed an IC50 of 0.1 to 1 µM.
For `O=C(CC1CN(c2n[nH]c(=O)c3cccnc23)CCO1)N1CCN(c2ncc(C(F)(F)F)cn2)CC1` (single isomer, unassigned) [Compound 104], the half-maximal inhibitory concentration (IC50) was < 0.1 µM.
On to `O=C(CC1CN(c2cc(C(F)(F)F)c(=O)[nH]n2)c2ccccc2O1)N1CCN(c2ccc(C(F)(F)F)cn2)CC1` (single isomer, unassigned) [Compound 246], for which the IC50 was < 0.1 µM.
As to `CN(C)CCNc1c(Oc2cccc(C(=O)N3CCN(c4ncc(C(F)(F)F)cn4)CC3)c2)n[nH]c(=O)c1C(F)(F)F` [Compound 172], the half-inhibitory concentration (IC50) is < 0.1 µM.
Compound `O=C(CC1CN(c2n[nH]c(=O)c3ccc(Cl)cc23)CCO1)N1CCN(c2ncc(C(F)(F)F)cn2)CC1` (single isomer, unassigned) [Compound 122] returned an IC50 of 0.1 to 1 µM.
Consider `O=C(c1cccc(Oc2n[nH]c(=O)c(C(F)(F)F)c2NC2CC(F)(F)C2)c1)N1CCN(c2ncc(C(F)(F)F)cn2)CC1` [Compound 167], for which the IC50 is < 0.1 µM.
Next, `Cc1c(Oc2cccc(C(=O)N3CC[C@H](Oc4ncc(C(F)(F)F)cn4)C3)c2)n[nH]c(=O)c1C(F)(F)F` [Compound 28]: > 1 µM.
Next, `O=C(CC1CN(c2n[nH]c(=O)c3cc(Cl)cc(F)c23)CCO1)N1CCN(c2ncc(C(F)(F)F)cn2)CC1` (single isomer, unassigned) [Compound 240]: 0.1 to 1 µM.

One may read the IC50 as the concentration at which inhibition is half-maximal.
